In patent US9969709B2, “Guanidinobenzoic acid ester compound” (Takeda Pharmaceutical Company Limited, priority 2013, dated 2018):
Structures can show the parent of a compound that is named as a salt.

What was measured:
ICR mice = experiment: Test of increase in fecal protein concentration using mice; assay type: in vivo, mouse; conditions: 5 mg/kg oral, male ICR mice, feces collected 3 to 9 hours after feeding started, control group = 1; for response vs control in vivo at 5 mg/kg: Mus musculus, po, 9 h, read-out: Fecal protein, Folds (vs. control)
Experimental: 2. Test of Increase in Fecal Protein Concentration Using Mice
For the experiment, 6-week old male ICR mice were used. The experiment was carried out in five mice per group. After fasting the mice for 15 hours, the control group was forcibly orally administered with a 0.5% methyl cellulose (MC) solution, and the test drug group was forcibly orally administered (5 mg/kg) with a solution or suspension obtained by dissolving or suspending the compound in the 0.5% MC solution. The fasting was stopped immediately thereafter, free feeding (CE-2) was started, and then the feces were collected from after 3 hours to after 9 hours, and weighed. All of the obtained feces were suspended in 6 mL of distilled water, and centrifuged at 1,940×g for 10 minutes. The protein concentration in the obtained supernatant was measured by a Bradford method, and the amount of the protein in 1 g of feces was calculated by dividing the protein concentration in the feces by the total weight of feces. Further, the efficacy was investigated from the ratio to the control group. For the compounds that were evaluated multiple times, the average values were calculated.
The results of the activities with an increase in Fecal Protein, assuming a value for the control group as 1, are shown in Table 2.

[1] = system: T1, mouse trypsin (m-trypsin); experiment: Trypsin inhibitory activity, mouse trypsin purified from small intestine contents, BZiPAR fluorescent substrate; assay type: biochemical; conditions: 30 min at room temperature
T1 construct: mouse trypsin (m-trypsin)
Excerpt: 1. Confirmation of Trypsin Inhibitory Activity in Humans and Mice
In the experiment, human recombinant trypsin (rh-trypsin; manufactured by Wako Pure Chemical Industries, Ltd.), cat. #206-17171) and mouse trypsin (m-trypsin; purified from the mouse small intestine contents by the present inventors) were used. The method for purifying m-trypsin from the contents of the mouse small intestine is shown below.
The small intestine contents and the gastrointestinal tract obtained from 10 mice were homogenized in phosphate buffer saline (PBS) using Polytron, and subjected to centrifugation several times at 15,000×g for 10 minutes. The supernatant was mixed at 4° C. for 16 hours with a Benzamidine Sepharose 4 Fast Flow Resin (GE Healthcare: #17-5123-10). After washing the resin with PBS, m-trypsin was eluted with a glycine buffer (pH 3.0) to carry out purification. It was confirmed by Western blot analysis that the obtained purified fraction was recognized as an Anti-mouse Trypsin Antibody (Santa Cruz Biotechnology, Inc.: sc-67388). The method for measuring the trypsin inhibiting activity is shown below.
(§1) The compound was dissolved in dimethyl sulfoxide (DMSO), and diluted to an arbitrary concentration (A). A was 100-fold diluted with a buffer (0.1 M Tris (pH 8.0), 0.15 M NaCl, 10 mM CaCl2, 0.05% Brij35) (B). The rh-trypsin was diluted with a buffer to 0.088 μg/mL, and for the m-trypsin, the purified fraction liquid was 50-fold diluted with the buffer (C). […] A BZiPAR solution (Rhodamine Reference Substrate) which is substrate for the trypsin enzyme was diluted with the buffer to […] (D). 5 μL of B, 5 μL of C, and 10 μL of D were added to a 384-well plate, and incubated at room temperature for 30 minutes. Fluorescent signals were detected at a maximum excitement (Ex)/fluorescent wavelength (Em)=497 nm/520 nm using a Tecan Safire Fluorometer. […] Based on the obtained inhibitory rates, the trypsin inhibitory activities (IC50 values, nM) were calculated from the non-linear regression.

[2] = molecular target: T2, human recombinant trypsin (rh-trypsin) (Homo sapiens, UniProt P07477); experiment: Trypsin inhibitory activity, human recombinant trypsin, BZiPAR fluorescent substrate; assay type: biochemical; conditions: 30 min at room temperature, read-out: r-h Trypsin inhibitory activity (IC50)
T2 construct: purchased Wako Pure Chemical Industries, Ltd. 206-17171
Experimental: as §1, with “1. Confirmation of Trypsin Inhibitory Activity in Humans and Mice In the experiment, human recombinant trypsin (rh-trypsin; manufactured by Wako Pure Chemical Industries, Ltd.), cat. #206-17171) and mouse trypsin (m-trypsin; purified from the mouse small intestine contents by the present inventors) were used. The method for purifying m-trypsin from the contents of the mouse small intestine is shown below. The compound” for “The compound”

IC50 [1] [nM] | IC50 [2] [nM] | Compound | response vs control in vivo at 5 mg/kg (ICR mice) [%] | Fecal protein, Folds (vs. control) (ICR mice)
0.23 | 0.25 | N=C(N)Nc1ccc(C(=O)Oc2ccc3c(c2)CCC3CC(=O)N(CC(=O)O)[C@@H](Cc2ccccc2)C(=O)O)cc1 (stereo partly drawn) [Example 46] | 184 | 
0.61 | 0.43 | N=C(N)Nc1ccc(C(=O)Oc2ccc3c(c2)CCC(C(=O)N(CC(=O)O)Cc2csc(C(=O)O)c2)C3)cc1 (stereo not drawn) [Example 4, 4-{[({6-[(4-carbamimidamidobenzoyl)oxy]-1,2,3,4-tetrahydronaphthalen-2-yl}carbonyl)(carboxymethyl)amino]methyl}thiophene-2-carboxylic acid monohydrochloride] | 262 | 
0.29 | 0.26 | N=C(N)Nc1ccc(C(=O)Oc2ccc3c(C(=O)N[C@@H](Cc4ccc(C(=O)O)cc4)C(=O)O)csc3c2)cc1 [Example 47] | 191 | 
0.45 | 0.37 | N=C(N)Nc1ccc(C(=O)Oc2ccc3c(c2)CCC3CC(=O)N(CC(=O)O)Cc2csc(C(=O)O)c2)cc1 (stereo not drawn) [Example 49] | 207 | 
0.14 | 0.2 | N=C(N)Nc1ccc(C(=O)Oc2ccc3c(C(=O)N(CC(=O)O)Cc4cccc(CC(=O)O)c4)cccc3c2)cc1 [Example 42] | 204 | 
0.42 | 0.37 | N=C(N)Nc1ccc(C(=O)Oc2ccc3c(c2)CCC(C(=O)N[C@@H](Cc2ccc(C(=O)O)cc2)C(=O)O)C3)cc1 (stereo partly drawn) [Example 35] | 159 | 
0.77 | 0.47 | N=C(N)Nc1ccc(C(=O)Oc2ccc3c(c2)CCC(C(=O)N(CC(=O)O)Cc2ccc(CC(=O)O)cc2)C3)cc1 (stereo not drawn) [Example 20] | 223 | 
0.24 | 0.23 | N=C(N)Nc1ccc(C(=O)Oc2ccc3c(c2)CCC(C(=O)N(CC(=O)O)Cc2ccc4sc(C(=O)O)cc4c2)C3)cc1 (stereo not drawn) [Example 24] | 151 | 
0.35 | 0.32 | N=C(N)Nc1ccc(C(=O)Oc2ccc3c(c2)CCCC3CC(=O)N(CC(=O)O)Cc2csc(C(=O)O)c2)cc1 (stereo not drawn) [Example 27] | 198 | 
0.13 | 0.18 | N=C(N)Nc1ccc(C(=O)Oc2ccc3cc(C(=O)N(CC(=O)O)[C@@H](Cc4ccccc4)C(=O)O)ccc3c2)cc1 [Example 39] | 108 | 
0.44 | 0.34 | N=C(N)Nc1ccc(C(=O)Oc2ccc3c(c2)CCCC3CC(=O)N(CC(=O)O)[C@@H](Cc2ccccc2)C(=O)O)cc1 (stereo partly drawn) [Example 22] | 215 | 
0.55 | 0.43 | N=C(N)Nc1ccc(C(=O)Oc2ccc3c(c2)CCC3CC(=O)N(CC(=O)O)Cc2ccc(CC(=O)O)cc2)cc1 (stereo not drawn) [Example 52] | 178 | 
0.36 | 0.25 | N=C(N)Nc1ccc(C(=O)Oc2ccc3c(C(=O)N(CC(=O)O)Cc4csc(C(=O)O)c4)csc3c2)cc1 [Example 13] | 273 | 
0.26 | 0.23 | N=C(N)Nc1ccc(C(=O)Oc2ccc3cc(C(=O)N(CC(=O)O)Cc4cccc(C(=O)O)c4)ccc3c2)cc1 [Example 14] | 179 | 
0.28 | 0.26 | N=C(N)Nc1ccc(C(=O)Oc2ccc3c(c2)CCCC3CC(=O)N[C@@H](Cc2ccc(C(=O)O)cc2)C(=O)O)cc1 (stereo partly drawn) [Example 36] | 190 | 
0.87 | 0.71 | N=C(N)Nc1ccc(C(=O)Oc2ccc3cc(C(=O)N(CC(=O)O)Cc4csc(C(=O)O)c4)sc3c2)cc1 [Example 59] | 164 | 
0.18 | 0.24 | N=C(N)Nc1ccc(C(=O)Oc2ccc3cc(C(=O)N[C@@H](Cc4ccc(C(=O)O)cc4)C(=O)O)ccc3c2)cc1 [Example 37] | 174 | 
0.14 | 0.15 | N=C(N)Nc1ccc(C(=O)Oc2ccc3c(C(=O)N(CC(=O)O)Cc4ccc5sc(C(=O)O)cc5c4)csc3c2)cc1 [Example 32] | 190 | 
0.68 | 0.31 | N=C(N)Nc1ccc(C(=O)Oc2ccc3c(c2)CCC3CC(=O)N(CC(=O)O)Cc2cccc(C(=O)O)c2)cc1 (stereo not drawn) [Example 11] | 263 | 
0.52 | 0.38 | C[C@H](C(=O)O)N(Cc1csc(C(=O)O)c1)C(=O)C1CCc2cc(OC(=O)c3ccc(NC(=N)N)cc3)ccc2C1 (stereo partly drawn) [Example 21] | 251 | 
0.54 | 0.36 | N=C(N)Nc1ccc(C(=O)Oc2ccc3c(c2)CCC(C(=O)N(CCC(=O)O)Cc2csc(C(=O)O)c2)C3)cc1 (stereo not drawn) [Example 45] | 138 | 
0.48 | 0.29 | C[C@H](C(=O)O)N(Cc1csc(C(=O)O)c1)C(=O)c1cccc2cc(OC(=O)c3ccc(NC(=N)N)cc3)ccc12 [Example 18] | 218 | 
0.57 | 0.43 | C[C@H](C(=O)O)N(Cc1csc(C(=O)O)c1)C(=O)CC1CCCc2cc(OC(=O)c3ccc(NC(=N)N)cc3)ccc21 (single isomer, unassigned) [Example 8, 4-({({(1R)-6-[(4-carbamimidamidobenzoyl)oxy]-1,2,3,4-tetrahydronaphthalen-1-yl}acetyl) [(1R)-1-carboxyethyl]amino}methyl)thiophene-2-carboxylic acid or an epimer at position 1 of the 1,2,3,4-tetrahydronaphthalene] |  | 1.90
0.4 | 0.38 | N=C(N)Nc1ccc(C(=O)Oc2ccc3c(c2)CCCC3CC(=O)N(CCc2ccc(C(=O)O)cc2)CC(=O)O)cc1 (stereo not drawn) [Example 28] | 154 | 
0.2 | 0.2 | N=C(N)Nc1ccc(C(=O)Oc2ccc3c(c2)CCCC3CC(=O)N(Cc2ccccc2)CC(CC(=O)O)CC(=O)O)cc1 (stereo not drawn) [Example 44] | 172 | 
0.24 | 0.14 | N=C(N)Nc1ccc(C(=O)Oc2ccc3cc(C(=O)N(CC(=O)O)Cc4ccc(CC(=O)O)cc4)ccc3c2)cc1 [Example 16] | 239 | 
0.27 | 0.22 | N=C(N)Nc1ccc(C(=O)Oc2ccc3c(C(=O)N(CC(=O)O)Cc4ccc(CC(=O)O)cc4)cccc3c2)cc1 [Example 17] | 270 | 
0.23 | 0.26 | C[C@H](C(=O)O)N(Cc1csc(C(=O)O)c1)C(=O)c1csc2cc(OC(=O)c3ccc(NC(=N)N)cc3)ccc12 [Example 29] | 143 | 
